According to patent publication US20220211687A1, “USE OF ARIMOCLOMOL IN THE TREATMENT OF NIEMANN PICK DISEASE” (Orphazyme A/S, priority 2020, published 2022):

Experiments:
[1] = evidenced by presence in cerebrospinal fluid of treated ALS patients; cited from earlier work
[2] = tested on: Niemann-Pick disease type C (NPC); assay: 5-domain NPCCSS score, open-label extension (OLE) of phase 2/3 trial; type: in vivo, human
[3] = Safety in open-label extension (OLE) of phase 2/3 trial
Description: All OLE patients received arimoclomol; routine clinical care, including miglustat, was maintained.

[4] = tested on: Niemann-Pick disease type C (NPC); assay: NPC clinical database (NPC-cdb) score, phase 2/3 trial; type: in vivo, human; conditions: for NPC-cdb score change from baseline to 12 months, Arimoclomol vs placebo: Difference: p=0.3785
Description: Additional secondary endpoints included: change from baseline in scale for assessment and rating of ataxia (SARA) score at 6 and 12 months; change in the nine-hole peg test (9-HPT) result at 6 and 12 months; change in health-related quality of life (HRQoL) as measured by the 5-dimension 3-level EuroQol questionnaire, youth version (EQ-5D-3L Y proxy) at 6 and 12 months; change in individual 5-domain NPCCSS score at month 12; and NPC clinical database (NPC-cdb) score changes from baseline at trial time points. The NPC-cdb score aims to reflect clinical status; an increase in score indicates a reduction in the patient's abilities.

[5] = tested on: Niemann-Pick disease type C (NPC); assay: EQ-5D-3L Y proxy health-related quality of life, phase 2/3 trial; type: in vivo, human
Protocol: EQ-5D-3L Y proxy: The HRQoL of individuals in the trial was measured using the child-friendly version of the EQ-5D-3L Y proxy questionnaire. The questionnaire was completed by the patient's caregiver as a proxy for the individual.

[6] = tested on: Niemann-Pick disease type C (NPC); assay: 17-domain (full) NPCCSS score excluding hearing domains, phase 2/3 trial; type: in vivo, human; conditions: for Full NPCCSS score (excluding hearing domains), LS mean change from baseline, Arimoclomol vs placebo: Difference: p=0.5726
Description: As would be appreciated by the skilled artisan, progression of NPC in a subject can be tracked by a clinician using the NPC composite clinical severity scale (hereafter “NPCCSS”; see Yanjanin NM et al. Am J Med Genet B Neuropsychiatr Genet, 2010; 153B (1): 132-140, incorporated herein by reference in its entirety). A full “17-domain NPCCSS score” incorporates clinical signs and symptoms in nine major (ambulation, cognition, eye movement, fine motor, hearing, memory, seizures, speech, swallowing) and eight minor (auditory brainstem response, behavior, gelastic cataplexy, hyperreflexia, incontinence, narcolepsy, psychiatric, respiratory problems) domains to determine a score which describes the severity of the subject's NPC progression (a higher score, the more progressed/severe the disease is). An abridged “5-domain NPCCSS score” is also used by clinicians, and incorporates clinical signs and symptoms from the major domains of ambulation, cognition, fine motor, speech and swallowing (see Cortina-Borj a M et al. OrphanetJRare Dis, 2018; 13 (1): 143; 3, incorporated herein by reference in its entirety).
(§1) Routine clinical care was maintained throughout the trial (including administration of miglustat). Each participant was randomized to receive arimoclomol or placebo three times daily. Arimoclomol was administered orally or by feeding tube at 93-372 mg/day based on the patient's body weight up to the estimated equivalence of 372 mg/day for adults (body weight >55 kg) or of 124 mg three times a day.

[7] = Safety evaluation (TEAEs), 12-month double-blind phase 2/3 trial; type: in vivo, human
Protocol: as §1

[8] = tested on: Niemann-Pick disease type C (NPC); assay: 5-domain NPCCSS score, 12-month double-blind placebo-controlled phase 2/3 trial; type: in vivo, human; conditions: for Responders on 5-domain NPCCSS score at 12 months, %: responder = stable or improved
Protocol: Patients enrolled in the trial were stratified by use of miglustat at baseline. Patients in both strata were randomized 2:1 to receive arimoclomol or placebo.
as §1
(§2) During the 12-month treatment phase, efficacy assessments for the primary endpoint, the 5-domain NPCCSS score, and for the non-disease specific Clinical Global Impression—Improvement scale (CGI-I) scores were performed at baseline and after 3, 6, 9, and 12 months of treatment; all other efficacy and biomarker assessments were performed at baseline and after 6 and 12 months of treatment.
Primary endpoint: The primary endpoint was change from baseline in NPC severity at 12 months as assessed by the 5-domain NPCCSS score, an abbreviated assessment tool originating from the 17 domain NPCCSS score developed by Yanjanin et al., as described herein. The fully validated 5-domain NPCCSS score comprises the domains determined to be most clinically relevant to patients, caregivers, and clinicians: ambulation, cognition, fine motor skills, speech, and swallowing. The total aggregated 5-domain NPCCSS score ranges from 0 to 25, with a higher score indicating more severe clinical impairment.
Subgroup analyses of primary endpoint: NPC is a heterogeneous disease, and patients aged 2 to 18 years present with a large spectrum of disease presentations. The group of children <4 years old includes patients with mild manifestations and patients with aggressive, early fatal disease. As this group is particularly heterogeneous, a subgroup of patients >4 years of age was predefined with the population of study participants.
In the EU, miglustat is indicated for the treatment of progressive neurological manifestations in patients with NPC. However, not all patients are candidates for miglustat treatment, and it is recommended that the benefit of treatment should be evaluated on a regular basis (e.g., every six months). An analysis of the subpopulation of patients receiving miglustat was prespecified to elucidate the effect of arimoclomol in patients on background miglustat treatment. Overall, the subgroups of patients ≥4 years of age, and patients on miglustat treatment, were expected to be more homogeneous with respect to baseline demographics and disease characteristics and therefore more suitable for comparison.
In the first post hoc analysis, subjects with double functional null mutations in NPC1 (NPC1 genotype of Functional Null/Functional Null) were excluded.

[9] = tested on: Niemann-Pick disease type C (NPC)
[10] = tested on: Niemann-Pick disease type C (NPC); assay: Nine-hole peg test (9-HPT), phase 2/3 trial; type: in vivo, human; conditions: for 9-HPT time, change from baseline to 12 months, LS mean: arimoclomol group
Description: 9-HPT: The 9-HPT is a direct and simple measurement of fine motor coordination, hand/eye coordination, and the ability to follow a simple direction, measured in seconds for each hand. The test is not applicable for children under 4 years of age. See Poole J L, Burtner PA, Torres TA, et al. Measuring dexterity in children using the Nine-hole Peg Test. J Hand Ther. 2005; 18:348-51.

[11] = tested on: Niemann-Pick disease type C (NPC); assay: Clinical Global Impression-Improvement scale (CGI-I) responder analysis, phase 2/3 trial; type: in vivo, human
Protocol: as §2
CGI-I: the CGI-I was originally developed as a research rating tool to assess psychiatric diseases (see Busner J, Targum SD. The clinical global impressions scale: applying a research tool in clinical practice. Psychiatry (Edgmont). 2007;4:28-37, incorporated herein by reference in its entirety). It provides the clinician's impression of improvement (or worsening) of a person's condition at the current visit compared with baseline on a 7-point scale ranging from 1 (very much improved) to 7 (very much worse). In the present trial, CGI-I was performed after clinical examination and patient interviews; the same investigator was instructed to perform CGI-I assessments throughout the trial for a given patient.

[12] = tested on: Niemann—Pick disease type C (NPC); conditions: background statement; cited from earlier work

## [O-][n+]1cccc(/C(Cl)=N/OC[C@H](O)CN2CCCCC2)c1 [Arimoclomol, N-[(2R)-2-hydroxy-3-piperidin-1-ylpropoxy]-1-oxidopyridin-1-ium-3-carboximidoyl chloride]
[1]
  Blood-brain barrier penetration: crosses the blood—brain barrier
[2]; 12-month OLE after 12-month double-blind part
  Benefit over a two-year period: sustained benefit
[2]; OLE, 36 months
  Treatment effect over 36 months: sustained treatment effect
[2]; arimoclomol-arimoclomol group, 3 years' arimoclomol treatment (DB and OLE)
  5D-NPCCSS mean (SD) change from baseline at M36: 3.5 (5.6)
[2]; patients who received arimoclomol for a total of two years, mainly due to patients under 4 years
  Progression in OLE compared to placebo-controlled part: greater progression
[2]; patients who switched from placebo to arimoclomol, 12-month open label extension
  5-domain NPCCSS progression: 0.23
[2]; placebo-arimoclomol group, 2 years' arimoclomol treatment (OLE only)
  5D-NPCCSS mean (SD) change from baseline at M36: 0.9 (2.1)
[2]; predefined subgroups: patients 4 years and older, patients receiving miglustat
  Early treatment initiation versus delayed start of treatment: greater benefit than delayed start of treatment
[2]; subgroups: aged >4 years, treated with miglustat, without double functional null mutations
  Benefit of sustained treatment across subgroups at M36: consistent benefit
[3]; M12-24
  Adverse events incidence: 87.8%
[3]; M24-36
  Adverse events incidence: 85.3%
[3]; over 24 months
  Safety and tolerability: safe and well-tolerated
[3]; over 36 months
  Tolerability: well tolerated
[4]; arimoclomol group
  NPC-cdb score change from baseline to 12 months, LS mean: 1.85
[4]
  NPC-cdb score change from baseline to 12 months, Arimoclomol vs placebo: Difference: −3.03
[4]; listed as arimoclomol
  NPC-cdb score change from baseline to 12 months, Arimoclomol vs placebo: Difference: numerically in favor of arimoclomol
[5]; arimoclomol group
  EQ-5D-3L Y proxy, Improved at 12 months, %: (25.9) %
  EQ-5D-3L Y proxy, Worsened at 12 months, %: (44.4) %
[5]; p=0.1804
  EQ-5D-3L Y proxy, Worsened at 12 months, Arimoclomol vs placebo: Difference: 24.4%
[5]; p=0.4880
  EQ-5D-3L Y proxy, Improved at 12 months, Arimoclomol vs placebo: Difference: −14.1%
[6]; 12 months, arimoclomol group
  Full NPCCSS score (excluding hearing domains), LS mean change from baseline: 1.24
[6]; 12 months
  Full NPCCSS score (excluding hearing domains), LS mean change from baseline, Arimoclomol vs placebo: Difference: −1.56
[6]; 12 months, listed as arimoclomol
  Full NPCCSS score (excluding hearing domains), LS mean change from baseline, Arimoclomol vs placebo: Difference: numerically in favor of arimoclomol
[6]; arimoclomol group n=25
  Full NPCCSS score (excluding hearing domains) at 12 months, Mean: 1.2
  Full NPCCSS score (excluding hearing domains) at 12 months, Median: 1.0
[7]; 12-month placebo-controlled trial
  Tolerability: well tolerated
[7]; arimoclomol group
  Number of patients with increase in serum creatinine level over 1.5 times baseline: Six
  Number of patients with serum creatinine level over twice baseline: two
[7]; arimoclomol group 5/34
  Patients with serious TEAEs: 14.7%
[7]; arimoclomol group 8/34
  Patients with vomiting (most common TEAE): 23.5%
[7]; double-blind phase
  Upper respiratory tract infection and decreased weight, frequency versus placebo: occurred more frequently
[7]; double-blind phase, 12 months, arimoclomol group 30/34
  Patients with TEAEs (adverse event incidence): 88.2%
[7]; during the trial
  Changes in vital signs, electrocardiograms, or other laboratory values: no significant changes
[7]; three patients, four TEAEs (urticaria x2, angioedema, increased blood creatinine)
  Patients with TEAEs that led to trial drug discontinuation: 8.8%
[8]; individuals aged ≥4 years, arimoclomol group n=30 (24 at 12 months)
  Change in 5-domain NPCCSS score from baseline at 12 months, mean change: 0.44
[8]; individuals aged ≥4 years, p=0.0190
  Change in 5-domain NPCCSS score from baseline at 12 months, Arimoclomol vs placebo: Difference: −1.75
[8]; individuals aged ≥4 years, vs placebo
  Relative reduction in annual disease progression: 80%
[8]; individuals not receiving miglustat, arimoclomol group n=8 (3 at 12 months)
  Change in 5-domain NPCCSS score from baseline at 12 months, mean change: 4.2
[8]; individuals not receiving miglustat, p=0.2835
  Change in 5-domain NPCCSS score from baseline at 12 months, Arimoclomol vs placebo: Difference: 2.21
[8]; individuals receiving miglustat, arimoclomol group n=26 (22 at 12 months)
  Change in 5-domain NPCCSS score from baseline at 12 months, mean change: −0.01
[8]; individuals receiving miglustat, p=0.0074
  Change in 5-domain NPCCSS score from baseline at 12 months, Arimoclomol vs placebo: Difference: −2.01
[8]; individuals receiving miglustat, vs placebo
  Relative reduction in annual disease progression: 101%
[8]; overall population, 5-domain NPCCSS, vs placebo
  Relative reduction in annual disease progression: 63%
[8]; overall population, arimoclomol group n=34 (27 at 12 months), 93-372 mg/day by body weight, three times daily
  Change in 5-domain NPCCSS score from baseline at 12 months, mean change: 0.80
[8]; overall population, p=0.0537
  Change in 5-domain NPCCSS score from baseline at 12 months, Arimoclomol vs placebo: Difference: −1.34
[8]; p=0.5456
  Responders on 5-domain NPCCSS score at 12 months, Arimoclomol vs placebo: Difference: 12.5%
[8]; p=1.0000
  Proportion worsening on 5-domain NPCCSS score at 12 months, Arimoclomol vs placebo: Difference: 0.37%
[8]; patients >4 years old (n=44) and patients concomitantly receiving miglustat (n=39), p<0.05
  Progression of NPC in prespecified subgroups (MMRM on 5-domain NPCCSS): slowed progression of NPC
[8]; post hoc, baseline ASIS within 0.5 and 2
  Relative reduction in annual disease progression: 93%
[8]; post hoc, baseline ASIS within 0.5 and 2 (n=21), p=0.0536
  Change in 5-domain NPCCSS score, Arimoclomol vs placebo: Difference: −2.39
[8]; post hoc, baseline ASIS within 0.5 and 2, arimoclomol n=13
  Change in 5-domain NPCCSS score from baseline at 12 months, mean change: 0.19
[8]; post hoc, excluding individuals with double functional null mutations
  Relative reduction in annual disease progression: 77%
[8]; post hoc, excluding individuals with double functional null mutations, arimoclomol n=31
  Change in 5-domain NPCCSS score from baseline at 12 months, mean change: 0.47
[8]; post hoc, excluding individuals with double functional null mutations, p=0.0242
  Change in 5-domain NPCCSS score, Arimoclomol vs placebo: Difference: −1.56
[8]; arimoclomol group n=34
  Responders on 5-domain NPCCSS score at 12 months, %: (50.0) %
[8]; arimoclomol group n=34, listed as arimoclomol
  Responders on 5-domain NPCCSS score at 12 months, %: 50.0%
[8]; time until worsened by 2 points vs baseline, arimoclomol group
  Time to worsening on 5-domain NPCCSS score: 3.68 months
[8]; worsening by 2 points vs baseline, arimoclomol group n=34
  Proportion worsening on 5-domain NPCCSS score at 12 months, %: (44.1) %
[9]; arimoclomol group
  SARA score change from baseline to 12 months, LS mean: 1.06
[9]; p=0.7899
  SARA score change from baseline to 12 months, Arimoclomol vs placebo: Difference: 0.28
[10]; Dominant hand
  9-HPT time, change from baseline to 12 months, LS mean: -3.29 s
[10]; Dominant hand, p=0.7283
  9-HPT time, change from baseline to 12 months, Arimoclomol vs placebo: Difference: 3.20 s
[10]; Non-dominant hand
  9-HPT time, change from baseline to 12 months, LS mean: 11.68 s
[10]; Non-dominant hand, p=0.7708
  9-HPT time, change from baseline to 12 months, Arimoclomol vs placebo: Difference: -5.91 s
[11]; p=1.0000
  Responders on CGI-I at 12 months, Arimoclomol vs placebo: Difference: 2.6%
[11]; responder = stable or improved, arimoclomol group
  Responders on CGI-I at 12 months, %: (58.8) %

## CCCCN1C[C@H](O)[C@@H](O)[C@H](O)[C@H]1CO [miglustat, (2R,3R,4R,5 S)-1-butyl-2-(hydroxymethyl)piperidine-3 ,4,5-triol]
[12]
  Effect on slowing NPC disease progression: only a modest effect on slowing disease progression
